Test: recombinant UMI read abundance after kanamycin selection (control-corrected) (log10(CPM+1)); higher = more efficient recombination; extreme values may be limits of the assay; sequences stand for … in AGTGCAGAGAAAATCGGCCAGTTTTCTCTGCCTGCAGTCCGCATGCCGTGGGACCCCTTGGGTTCTAACCTGTTGCCTAGATTTATGCAGCGGACTGCCTTTCTCCCAAAGTGATAAACCGG…AGGTTGGTTTCACT; site = the 11-nt donor
Summary of the method: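 Reported values are log10(CPM+1) from a pooled Escherichia coli screen of donor and donor-binding-loop pairs for the IS621 bridge recombinase. Selection used IPTG (0.07 mM) plus kanamycin, against unselected plating, each in two replicates. Recombinant UMIs were amplified across the donor–target junction, sequenced, converted to CPM, averaged over replicates and scaled by control-derived factors.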
In the case of “TCGTACGCATGGACCGGTTTTCCCGGTAATCCGTATTTGCC (site TCGTACGCTGG)”, the “recombinant UMI read abundance (log10)” value is reported as 0.
With “TCGTATCCATGGACCGGTTTTCCCGGTAATCCGTATTTGAC (site TCGTATCCTGT)” the “recombinant UMI read abundance (log10)” value was 0.
For “TCGTCACCATGGACCGGTTTTCCCGGTAATCCGTATTTGTA (site TCGTCACCTTA)”, the “recombinant UMI read abundance (log10)” value was 0.0393.
In the case of “TCGTGCACATGGACCGGTTTTCCCGGTAATCCGTATTTGAC (site TCGTGCACTGT)”, the “recombinant UMI read abundance (log10)” value is reported as 1.93.
With “TCGTTCGCATGGACCGGTTTTCCCGGTAATCCGTATTTGCT (site TCGTTCGCTAG)” the “recombinant UMI read abundance (log10)” value was 0.
For “TCTAAGTCATGGACCGGTTTTCCCGGTAATCCGTATTTGCA (site TCTAAGTCTTG)”, the “recombinant UMI read abundance (log10)” value was 0.436.
With “TCTAGAACATGGACCGGTTTTCCCGGTAATCCGTATTTGAG (site ACTAGAACTCT)” the “recombinant UMI read abundance (log10)” value was 0.00743.
With “TCTAGAACATGGACCGGTTTTCCCGGTAATCCGTATTTGAG (site CCTAGAACTCT)” the “recombinant UMI read abundance (log10)” value was 0.0482.
For “TCTAGAACATGGACCGGTTTTCCCGGTAATCCGTATTTGAG (site GCTAGAACTCT)”, the “recombinant UMI read abundance (log10)” value was 0.
For “TCTAGAACATGGACCGGTTTTCCCGGTAATCCGTATTTGAG (site TCTAGAACTCT)”, the “recombinant UMI read abundance (log10)” value was 0.00301.
In the case of “TCTATGACATGGACCGGTTTTCCCGGTAATCCGTATTTGTG (site TCTATGACTCA)”, the “recombinant UMI read abundance (log10)” value is reported as 0.00894.
For “TCTGGACCATGGACCGGTTTTCCCGGTAATCCGTATTTGAC (site TCTGGACCTGT)”, the “recombinant UMI read abundance (log10)” value was 0.
With “TCTGGCGCATGGACCGGTTTTCCCGGTAATCCGTATTTGCC (site TCTGGCGCTGG)” the “recombinant UMI read abundance (log10)” value was 0.
With “TCTTCCGCATGGACCGGTTTTCCCGGTAATCCGTATTTGAT (site TCTTCCGCTAT)” the “recombinant UMI read abundance (log10)” value was 0.00526.
In the case of “TCTTCGGCATGGACCGGTTTTCCCGGTAATCCGTATTTGGC (site TCTTCGGCTGC)”, the “recombinant UMI read abundance (log10)” value is reported as 0.
With “TGAAGCTCATGGACCGGTTTTCCCGGTAATCCGTATTTGGG (site TGAAGCTCTCC)” the “recombinant UMI read abundance (log10)” value was 0.0156.
In the case of “TGACAACCATGGACCGGTTTTCCCGGTAATCCGTATTTGCC (site TGACAACCTGG)”, the “recombinant UMI read abundance (log10)” value is reported as 0.
For “TGACACCCATGGACCGGTTTTCCCGGTAATCCGTATTTGAA (site TGACACCCTTT)”, the “recombinant UMI read abundance (log10)” value was 0.0711.
In the case of “TGACCGGCATGGACCGGTTTTCCCGGTAATCCGTATTTGGC (site TGACCGGCTGC)”, the “recombinant UMI read abundance (log10)” value is reported as 1.25.
In the case of “TGACCGGCATGGACCGGTTTTCCCGGTAATCCGTATTTGGC (site TGCCCGGCTGC)”, the “recombinant UMI read abundance (log10)” value is reported as 0.
With “TGACCGGCATGGACCGGTTTTCCCGGTAATCCGTATTTGGC (site TGGCCGGCTGC)” the “recombinant UMI read abundance (log10)” value was 0.
For “TGACCGGCATGGACCGGTTTTCCCGGTAATCCGTATTTGGC (site TGTCCGGCTGC)”, the “recombinant UMI read abundance (log10)” value was 0.
For “TGACGGTCATGGACCGGTTTTCCCGGTAATCCGTATTTGAA (site TGACGGTCTTT)”, the “recombinant UMI read abundance (log10)” value was 1.52.
In the case of “TGACTATCATGGACCGGTTTTCCCGGTAATCCGTATTTGCC (site TGACTATCTGG)”, the “recombinant UMI read abundance (log10)” value is reported as 1.54.
In the case of “TGAGCTACATGGACCGGTTTTCCCGGTAATCCGTATTTGCC (site TGAGCTACTGG)”, the “recombinant UMI read abundance (log10)” value is reported as 0.451.
In the case of “TGAGCTTCATGGACCGGTTTTCCCGGTAATCCGTATTTGTA (site TGAGCTTCTTA)”, the “recombinant UMI read abundance (log10)” value is reported as 1.92.
In the case of “TGAGGCACATGGACCGGTTTTCCCGGTAATCCGTATTTGGT (site TGAGGCACTAC)”, the “recombinant UMI read abundance (log10)” value is reported as 0.463.
For “TGAGGTCCATGGACCGGTTTTCCCGGTAATCCGTATTTGAA (site TGAGGTCCTTT)”, the “recombinant UMI read abundance (log10)” value was 0.00722.
With “TGAGTCACATGGACCGGTTTTCCCGGTAATCCGTATTTGAC (site TGAGTCACTGT)” the “recombinant UMI read abundance (log10)” value was 2.61.
With “TGATAGACATGGACCGGTTTTCCCGGTAATCCGTATTTGCC (site AGATAGACTGG)” the “recombinant UMI read abundance (log10)” value was 1.96.
In the case of “TGATAGACATGGACCGGTTTTCCCGGTAATCCGTATTTGCC (site CGATAGACTGG)”, the “recombinant UMI read abundance (log10)” value is reported as 2.02.
For “TGATAGACATGGACCGGTTTTCCCGGTAATCCGTATTTGCC (site GGATAGACTGG)”, the “recombinant UMI read abundance (log10)” value was 0.
With “TGATAGACATGGACCGGTTTTCCCGGTAATCCGTATTTGCC (site TGATAGACTGG)” the “recombinant UMI read abundance (log10)” value was 2.54.
With “TGATCCTCATGGACCGGTTTTCCCGGTAATCCGTATTTGCT (site CGATCATCTAG)” the “recombinant UMI read abundance (log10)” value was 0.523.
In the case of “TGATCCTCATGGACCGGTTTTCCCGGTAATCCGTATTTGCT (site TGATCCTCTAG)”, the “recombinant UMI read abundance (log10)” value is reported as 1.81.
In the case of “TGATGAGCATGGACCGGTTTTCCCGGTAATCCGTATTTGGG (site TAATGAGCTCC)”, the “recombinant UMI read abundance (log10)” value is reported as 0.0122.
In the case of “TGATGAGCATGGACCGGTTTTCCCGGTAATCCGTATTTGGG (site TCATGAGCTCC)”, the “recombinant UMI read abundance (log10)” value is reported as 0.0102.
In the case of “TGATGAGCATGGACCGGTTTTCCCGGTAATCCGTATTTGGG (site TGATGAGCTCC)”, the “recombinant UMI read abundance (log10)” value is reported as 0.403.
With “TGATGAGCATGGACCGGTTTTCCCGGTAATCCGTATTTGGG (site TTATGAGCTCC)” the “recombinant UMI read abundance (log10)” value was 0.0217.
For “TGATTAGCATGGACCGGTTTTCCCGGTAATCCGTATTTGGG (site TGATTAGCTCC)”, the “recombinant UMI read abundance (log10)” value was 0.
For “TGCACCACATGGACCGGTTTTCCCGGTAATCCGTATTTGCT (site TGCACCACTAG)”, the “recombinant UMI read abundance (log10)” value was 1.3.
In the case of “TGCACGGCATGGACCGGTTTTCCCGGTAATCCGTATTTGTT (site TGCACGGCTAA)”, the “recombinant UMI read abundance (log10)” value is reported as 0.724.
In the case of “TGCCACCCATGGACCGGTTTTCCCGGTAATCCGTATTTGTT (site AGCCACCCTAA)”, the “recombinant UMI read abundance (log10)” value is reported as 0.00473.
With “TGCCACCCATGGACCGGTTTTCCCGGTAATCCGTATTTGTT (site CGCCACCCTAA)” the “recombinant UMI read abundance (log10)” value was 0.0165.
With “TGCCACCCATGGACCGGTTTTCCCGGTAATCCGTATTTGTT (site GGCCACCCTAA)” the “recombinant UMI read abundance (log10)” value was 0.00763.
For “TGCCACCCATGGACCGGTTTTCCCGGTAATCCGTATTTGTT (site TGCCACCCTAA)”, the “recombinant UMI read abundance (log10)” value was 0.0117.
For “TGCCATGCATGGACCGGTTTTCCCGGTAATCCGTATTTGCC (site TGCCATGCTGG)”, the “recombinant UMI read abundance (log10)” value was 0.0153.
With “TGCCCAACATGGACCGGTTTTCCCGGTAATCCGTATTTGGT (site TGCCCAACTAC)” the “recombinant UMI read abundance (log10)” value was 0.06.
For “TGCCCTGCATGGACCGGTTTTCCCGGTAATCCGTATTTGTT (site TGCCCTGCTAA)”, the “recombinant UMI read abundance (log10)” value was 0.0362.
In the case of “TGCCTATCATGGACCGGTTTTCCCGGTAATCCGTATTTGTT (site TGCCTATCTAA)”, the “recombinant UMI read abundance (log10)” value is reported as 0.0105.
With “TGCCTCGCATGGACCGGTTTTCCCGGTAATCCGTATTTGGG (site TGCCTCGCTCC)” the “recombinant UMI read abundance (log10)” value was 0.0166.
In the case of “TGCGAGCCATGGACCGGTTTTCCCGGTAATCCGTATTTGAA (site TGCGAGCCTTT)”, the “recombinant UMI read abundance (log10)” value is reported as 0.00414.
With “TGCGAGGCATGGACCGGTTTTCCCGGTAATCCGTATTTGTA (site TGCGAGGCTTA)” the “recombinant UMI read abundance (log10)” value was 1.41.
In the case of “TGCGCTTCATGGACCGGTTTTCCCGGTAATCCGTATTTGGG (site TGCGCTTCTCC)”, the “recombinant UMI read abundance (log10)” value is reported as 0.0195.
With “TGCGGACCATGGACCGGTTTTCCCGGTAATCCGTATTTGCA (site TGCGGACCTTG)” the “recombinant UMI read abundance (log10)” value was 0.
For “TGCGGACCATGGACCGGTTTTCCCGGTAATCCGTATTTGCT (site TGCGGACCTAG)”, the “recombinant UMI read abundance (log10)” value was 0.00621.
In the case of “TGCGTGACATGGACCGGTTTTCCCGGTAATCCGTATTTGAT (site TGCGTGACTAT)”, the “recombinant UMI read abundance (log10)” value is reported as 1.94.

From the supplement of paper PMC11208160
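Note: IS621 bridge recombinase in Escherichia coli cells against a fixed T5 target plasmid.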
